Data taken from ChEMBL document CHEMBL1201862, “PubChem BioAssay data set” (2004).
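Following 48 hours of exposure in 96-well plates, responses at five concentrations were used to interpolate endpoints linearly. The concentration for 50% growth inhibition is given as GI50.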 Active and inactive are the calls of the source. No stated cut-off is given here; in the data, active = GI50 up to about 1.1 µM and inactive = higher.

Experiments:
Test in all cases: NCI-60 cell line screen, 48 h
[1] = tested on: LOX IMVI
[2] = tested on: UACC-62
[3] = tested on: NCI-H460
[4] = tested on: A498
[5] = tested on: KM12
[6] = tested on: COLO 205
[7] = tested on: A549
[8] = tested on: K562
[9] = tested on: HOP-62
[10] = tested on: Malme-3M
[11] = tested on: SF-268
[12] = tested on: HT-29
[13] = tested on: HCC 2998
[14] = tested on: SR
[15] = tested on: SK-MEL-28

Measured: GI50

CCCCN(CCCC)/C(=N\C#N)NCc1ccccc1
inactive: [1] 16.5 µM | [2] 16.3 µM | [3] 13.9 µM | [4] 18.1 µM | [5] 21.3 µM | [6] 16.4 µM | [7] 25.8 µM | [8] 7.43 µM | [9] 28.4 µM | [10] 32.4 µM | [11] 29.4 µM | [12] 16.5 µM | [13] 15.5 µM

COc1cc(/C=C2\[C@H]3c4c(c(OC)c(C)c(OC)c4OC)C[C@@H](C(=O)N2Cc2ccccc2)N3C(=O)OCC(C)C)c(OC)c(C)c1OC
inactive: [1] > 100 µM | [2] > 100 µM | [14] 13.3 µM | [15] > 100 µM | [4] > 65.9 µM | [5] > 100 µM | [6] > 86.3 µM | [7] > 71.1 µM | [8] 42.2 µM | [9] > 100 µM | [10] > 100 µM | [11] > 100 µM | [12] > 84.5 µM | [13] > 78.9 µM

CC(=O)Nc1ccc(C(=O)NN2C(=O)C(Cl)C2c2ccc(O)cc2)cc1 (stereo unspecified)
inactive: [1] > 100 µM | [2] > 100 µM | [15] > 100 µM | [3] > 100 µM | [4] > 100 µM | [6] > 100 µM | [7] > 100 µM | [8] > 100 µM | [9] 57.9 µM | [10] > 100 µM | [11] 64.1 µM | [12] > 100 µM

COc1ccc2c(c1)C1(C=N2)CCN(C(C)=O)CC1
inactive: [1] > 100 µM | [2] > 100 µM | [15] > 100 µM | [3] > 100 µM | [4] > 100 µM | [5] 57.7 µM | [6] > 100 µM | [7] > 100 µM | [8] > 100 µM | [9] > 100 µM | [10] > 100 µM | [11] 48 µM | [12] > 100 µM | [13] > 100 µM

OCCCCOC(c1ccccc1)(c1ccccc1)c1ccccc1
inactive: [1] > 100 µM | [2] > 100 µM | [14] > 100 µM | [15] > 100 µM | [3] > 100 µM | [5] > 100 µM | [6] > 100 µM | [7] > 100 µM | [8] > 100 µM | [9] > 100 µM | [10] > 100 µM | [11] > 100 µM | [12] > 100 µM | [13] > 100 µM

O=C(CC1(O)C(=O)Nc2c(Cl)cc(Cl)cc21)c1ccccc1 (stereo unspecified)
inactive: [1] > 100 µM | [2] 59.4 µM | [15] > 100 µM | [3] > 100 µM | [4] > 100 µM | [6] > 100 µM | [7] > 100 µM | [8] 47.4 µM | [10] > 100 µM | [11] 76 µM | [12] 31.6 µM

CC(=O)NC(CCCCN)C(=O)NCc1ccccc1 (stereo unspecified)
inactive: [1] > 100 µM | [2] > 100 µM | [15] > 100 µM | [3] > 100 µM | [4] > 100 µM | [5] > 100 µM | [6] > 100 µM | [7] > 100 µM | [8] > 100 µM | [9] > 100 µM | [10] > 100 µM | [11] 42.1 µM | [12] > 100 µM | [13] > 100 µM

C=CCC(C)(C(=O)NCCC)C(=O)c1ccccc1O (stereo unspecified)
inactive: [2] > 100 µM | [14] > 100 µM | [15] > 100 µM | [3] > 100 µM | [4] > 100 µM | [5] > 100 µM | [6] > 100 µM | [7] > 100 µM | [8] > 100 µM | [9] > 100 µM | [10] > 100 µM | [11] > 100 µM | [13] > 100 µM

COc1cc(Br)c(CC2(C#N)c3ccccc3C3C(N2C(=O)c2ccccc2)C3(Cl)Cl)cc1OC (stereo unspecified)
inactive: [1] > 65.5 µM | [2] 33.5 µM | [14] 4.01 µM | [15] > 65.5 µM | [3] 4.83 µM | [5] 23.1 µM | [6] 10.4 µM | [7] > 65.5 µM | [8] 5.7 µM | [10] > 65.5 µM | [11] > 65.5 µM | [12] > 65.5 µM | [13] 20.9 µM

O=c1/c(=C/c2ccccc2F)sc2nc3ccccc3n12
inactive: [1] 91 µM | [2] > 100 µM | [14] 38.3 µM | [15] > 100 µM | [3] > 100 µM | [4] > 100 µM | [7] > 100 µM | [8] > 100 µM | [10] > 100 µM | [11] 61.5 µM | [12] > 100 µM | [13] > 100 µM

C=CCNC(=S)N1CC(C)C(=O)Nc2cc(Cl)ccc21 (stereo unspecified)
inactive: [2] > 100 µM | [14] > 100 µM | [15] > 100 µM | [3] > 100 µM | [4] > 100 µM | [5] > 100 µM | [6] > 100 µM | [7] > 100 µM | [8] > 100 µM | [9] > 100 µM | [10] 82 µM | [11] > 100 µM | [12] > 100 µM

Cc1c(C(=O)CSc2nc3ccccc3[nH]2)c(=O)n(-c2ccccc2)n1C
inactive: [1] > 100 µM | [14] > 100 µM | [15] > 100 µM | [3] > 100 µM | [4] > 100 µM | [5] > 100 µM | [6] > 100 µM | [7] > 100 µM | [9] > 100 µM | [10] 34.9 µM | [11] > 100 µM | [12] > 100 µM | [13] > 100 µM

c1ccc2[nH]c(-c3nc4ccccc4o3)nc2c1
inactive: [1] 66.1 µM | [14] > 100 µM | [15] > 100 µM | [3] > 100 µM | [4] > 100 µM | [5] > 100 µM | [6] 49.9 µM | [7] > 100 µM | [9] > 100 µM | [10] > 100 µM | [11] > 100 µM | [12] > 100 µM | [13] > 100 µM

CCc1cc(Cc2ccc(C)c(NC(=O)C(=O)C3C(=O)NC(=O)NC3=O)c2CC)cc(C)c1NC(=O)C(=O)C1C(=O)NC(=O)NC1=O
inactive: [1] > 100 µM | [2] > 100 µM | [15] > 100 µM | [3] > 100 µM | [4] > 100 µM | [5] > 100 µM | [6] > 100 µM | [7] > 100 µM | [8] > 100 µM | [9] > 100 µM | [10] > 100 µM | [11] > 100 µM | [13] > 100 µM

COc1ccc2nc(NC(=O)C(=O)C(C(=O)c3ccccc3-c3ccccc3)C3OC(=O)c4ccccc43)sc2c1 (stereo unspecified)
inactive: [1] 17 µM | [2] 17.3 µM | [15] 20.5 µM | [3] 21.7 µM | [4] 17.7 µM | [5] 21.6 µM | [6] 20.5 µM | [7] 23.8 µM | [8] 30.2 µM | [9] 16.2 µM | [10] 12.1 µM | [11] 20 µM | [12] 36.6 µM | [13] 15.4 µM
